Experiments:
[1] = tested on: CAIA-induced C57BL/6 mice; assay: Collagen antibody-induced arthritis (CAIA) model; type: in vivo, mouse
Method: 14. Induction of rheumatoid arthritis in C57BL/6 mice: To induce rheumatoid arthritis, anti-collagen-II mAbs (CII-Ab, Arthrogen-CIA Arthritogenic Monoclonal Antibody, #53010: Chondrex, Inc., WA, USA) were intraperitoneally (i.p.) injected into 7-week-old male mice on the first day, and 50 μg of LPS was injected on the third day. To evaluate the severity of arthritis, a scoring system was applied according to the criteria.
0. No erythema and swelling are observed.
1. Slight erythema is observed in tarsals and ankle joints.
2. Slight erythema and swelling are observed from an ankle joint to the midfoot.
3. Erythema and swelling extending from ankle joints to the metatarsals are observed.
4. Erythema and severe swelling were observed throughout the ankles, feet, and fingers.
The sum of final scores was recorded daily until the sum reached 16. On the 18th day, each of the mice was anesthetized, and then located on a radiographic view box. Thereafter, a location of each of the mice was adjusted so that the mouse was disposed at a distance of 90 cm from an X-ray source. The radioanalysis on hind legs with arthritis was performed by irradiating the hind legs at […] for 0.01 seconds using an X-ray machine (BLD-150RK, Hradec Kralove, Czech Republic).
15. Immunohistochemical assay: An immunohistochemical assay was carried out using an avidin-biotin-peroxidase method known in the art. Each of joint tissue samples collected from the mice was fixed with formalin, and embedded in paraffin. These samples were continuously microtomed into sections with a thickness of 4 μm. Each of the sections was stained with haematoxylin/eosin (H&E), anti-COX-2 and anti-iNOS antibodies (Caymen Chemical, Ann Arbor, Mich.).
Referring to FIG. 10(A), MMPP (5 mg/kg, p.o.) (dissolved in 100 μL of PBS including 0.5 μL of DMSO), a vehicle (a negative control), or indomethacin (5 mg/kg, p.o./dissolved in […] of PBS after the dissolution) was administered daily to 7-week-old male C57BL/6 mice for 18 days.

[2] = tested on: NF-κB; assay: EMSA and Western blotting of the NF-κB pathway in LPS-treated RAW 264.7 cells; type: cell-based, mouse
Method: 10. EMSA assay (Electromobility shift assay): RAW 264.7 cells were cultured for 24 hours to perform an EMSA assay. The relative density of a protein band was scanned using MyImage, and qualitatively analyzed using Labworks 4.0 software (UVP, Inc.).
12. Western blotting assay: A whole cell lysate, a cytosolic extract, and a nuclear extract were obtained. SDS-PAGE and Western blotting assays were carried out as disclosed in published Documents 1 and 2. Simply speaking, the cells were seeded in a 6-well plate at a density of 5×10^5 cells/well, and cultured for 24 hours. Thereafter, the cells were treated with MMPP or DMSO for 24 hours. After the treatment, the cells were washed twice with PBS, and then lyzed. Proteins of the lyzed cells were separated on 10 to 15% SDS-PAGE. The proteins were transferred to a PVDF membrane, and the PVDF membrane was blocked at room temperature for 2.5 hours in a TB S/T buffer containing 5% skim milk. The membrane to which the proteins were transferred was analyzed using, as primary antibodies, murine monoclonal antibodies against Cdk2, Cdk4, Cdk6, cyclin B1, cyclin D1, cyclin E1, Bcl-2, Bax, caspase-3, caspase-8, STAT3, phspho-STAT3, (3-actin, and histone hl. Expression of the proteins was visualized using a chemiluminescence reagent (Amersham Pharmacia Biotech, Inc., Buckinghamshire, UK), and measured using a digital chemiluminescence imaging system equipped with a CCD camera (Fusion-FX, Fisher BioTech, Ltd., Wembley, Australia).
RAW 264.7 cells were treated with LPS alone or a combination of LPS and MMPP for 30 minutes, and the DNA binding activities of NF-κB and STAT3 were examined using an electrophoretic mobility shift assay (EMSA). Also, the same amount of the total proteins (20 μg/Lane) was subjected to 10% SDS-PAGE, and STAT3, P-STAT3, p50, p65, IKK, lκB, and p-lκB were detected through Western blotting. A (3-actin protein or histone H was used as the control.

[3] = tested on: RAW 264.7 cells; assay: Anti-inflammatory effect in TNF-α-treated RAW 264.7 cells; type: cell-based, mouse; conditions: TNF-α (10 ng/mL), 24 hours
Method: 6. Nitrite assay: RAW 264.7 cells were added to a 96-well plate at a density of 1×10^4 cells/well, and LPS […] and TNF-α (10 ng/mL) were added or not added for 24 hours in the presence or absence of various concentrations of MMPP. Accumulation of nitrites in a supernatant was analyzed using a nitric oxide assay kit commercially available from iNtRON Biotechnology (Seongnam, Korea).
8. ROS Assay: An ROS assay was carried out using an ELISA kit (commercially available from Cell Biolabs Inc.).
In Experimental Example 7, an experiment regarding an anti-inflammatory effect of MMPP in TNF-α-treated RAW 264.7 cells was performed.
It was confirmed that, when RAW 264.7 cells were treated with TNF-α (10 ng/mL) in combination with MMPP […] for 24 hours, the NO and ROS generation (FIG. 8(A)), the iNOS and COX2 expression (FIG. 8(B)), and the STAT3 and NF-κB activities (FIGS. 8(C) and (D)) induced by treatment with TNF-α (10 ng/mL) were reduced in the RAW 264.7 cells.

[4] = 5 mg/kg, p.o. daily, last (18th) day
[5] = LPS-induced, co-treated with MMPP

## COc1ccc(C/C=C/c2ccc(O)c(OC)c2)cc1 [MMPP, 2-methoxy-4-(3-(4-methoxyphenyl)prop-1-en-1-yl)phenol]
[1]; 5 mg/kg
  degrees of bone destruction and fibrosis in ankle joints (histopathologic evaluation): remarkably reduced
  tissue edema and bone destruction of hind legs (radiographic inspection): significantly reduced
[1]; [4]
  clinical score: approximately 4.67
  clinical score lower than that of the CAIA group: 66.5%
[1]; mouse, in vivo
  anti-arthritic effect in CAIA model: had an anti-arthritic effect
[2]
  LPS-induced phosphorylation of IKKb and IKKa: inhibited
[2]; [5]
  DNA binding activity and transcriptional activity of NF-κB: reduced in a concentration-dependent manner
  IκB degradation: reduced in a concentration-dependent manner
  nuclear translocation of NF-κB subunits p65 and p50: reduced in a concentration-dependent manner
[3]
  NO and ROS generation: reduced
  STAT3 and NF-κB activities: reduced
  iNOS and COX2 expression: reduced

Reference: US10265276B2, “Pharmaceutical composition for preventing or treating arthritis or inflammatory disease containing 2-methoxy-4-(3-(4-methoxyphenyl)propyl-1-en-1-yl)phenol as active ingredient” (CHUNGBUK NATIONAL UNIVERSITY INDUSTRY-ACADEMIC COOPERATION …, priority 2015, dated 2019)
